Consider one compound from patent publication US9655913B2, “Anti-esophageal cancer compound and method of use thereof” (Hong Kong Baptist University, priority 2015, dated 2017).

In one data set the test system is KYSE-70. Kind of data set: MTT cytotoxicity assay, KYSE-70. The following applies: KYSE-70, highest concentration of 50 μg/mL, 48 hours. Format: cell-based, Human. As to the method:
(§1) In this invention, compound 1 was dissolved in dimethyl sulfoxide (DMSO) to make stock solutions and further diluted in culture medium for this experiment. Human esophagus carcinoma cancer cell lines (KYSE-70, KYSE-150, KYSE-450 and KYSE-520) were cultured in RPMI 1640 or DMEM medium, containing 10% fetal bovine serum and 1% antibiotics (Penicillin and strep). The cell lines were cultured at 37° C. in a humidified environment containing 5% CO2. A standard colorimetric MTT assay was used to determine the cell viability. Cells were seeded in a 96-well plate (3×10^3 cells/well) and allowed to attach to the plate overnight. After the recovery, cells were treated with various concentrations of compound 1 or the crude extract (1.56, 3.125, 6.25, 12.5, 25, 50 μg/mL) for 48 hours. Then, 20 μL of MTT (5 mg/mL stock in PBS) per well was added into the medium (200 μL) and incubated for 4 hours at 37° C. Finally, the culture medium was removed and 200 μL of DMSO were added. Absorbance of the solution was measured using a microplate reader spectrophotometer (Bio-Rad Laboratories, Inc., Hercules, Calif.) at a wavelength of 570 nm.
On the technique in general: Formazan colour is commonly taken as a measure of viable cells.

For another data set, the system named is KYSE-150. Kind of data set: MTT cytotoxicity assay, KYSE-150. Particulars: KYSE-150, highest concentration of 50 μg/mL, 48 hours. The class given is cell-based, Human. As to the method:
as §1

Another data set relates to KYSE-450. Kind of data set: MTT cytotoxicity assay, KYSE-450. The class given is cell-based, Human. The following applies: KYSE-450, highest concentration of 50 μg/mL, 48 hours. As to the method:
as §1

Another data set deals with KYSE-520. Kind of data set: MTT cytotoxicity assay, KYSE-520. The following applies: KYSE-520, highest concentration of 50 μg/mL, 48 hours. Format: cell-based, Human. As to the method:
as §1

For data set [1], the system named is KYSE-150 cells. Kind of data set: Wound healing assay. Format: cell-based, human. Particulars: KYSE-150, 50 μg/mL, after 72 hours, vs control. As to the method:
Cells were seeded in 12 wells plate at 30% confluence by scoring with a sterile plastic tip (1 mL), then washed several times with medium to remove cell debris and then incubated in the conditioned medium in the absence or presence of compound 1 at 50 μg/mL for various periods of time up to 72 hours. Cell migration into the wound surface was monitored by Olympus IX71 microscopy and digitally photographed.
To further examine the inhibitory effect of compound 1 on the migratory activity of cancer cell, a confluent monolayer of KYSE-150 cells was scratched to form a wound and incubated in the absence or presence of compound 1 (50 μg/mL) as compared to that of controls.

In data set [2] the test system is KYSE-150 cells. Kind of data set: Tumor xenograft mouse model. The class given is in vivo, Balb/c nude mice. Particulars: 15 and 30 mg/kg/day intraperitoneal, 12 days, vs saline control. As to the method: Six to eight-week-old female Balb/c nude weighing between 16-20 g were bred in 12 h day/night cycle environment with free access to food and water. 2×10^6 KYSE-150 cells per […] saline were injected subcutaneously into the flanks of the mice. When the tumor volume reached about 100 mm^3, the mice were randomly divided into three groups (n=5) as followed: (i) a control group: administered with saline; (ii) a low dosage group: administered with compound 1 at 15 mg/kg/day by intraperitoneal injection; (iii) a high dosage group, administered with compound 1 at 30 mg/kg/day by intraperitoneal injection. Tumor volumes were calculated with calipers every two days according to the formula: Volume=(width)^2×length/2. After 12 days observation, mice were killed to remove the tumor. Then the samples were fixed in 4% paraformaldehyde and embedded in paraffin. Five-micro-meter sections were stained with hematoxylin/eosin according to a standard procedure. The protocol was approved by the committee for Care of Laboratory Animals in the School of Chinese Medicine at the Hong Kong Baptist University.

“Also recorded” adds a separate entry of the source.

In the case of `COc1cc(-c2oc3cc(O)cc(O)c3c(=O)c2OC2OC(COC3OC(C)C(O)C(O)C3O)C(O)C(O)C2O)ccc1O` (stereo not drawn) [compound 1], the “Cytotoxicity (cell viability)” value with KYSE-70 is reported as “no cytotoxicity was observed”; in the data set on KYSE-150, “cells viability was not altered; also recorded: no cytotoxicity was observed”; with KYSE-450, “no cytotoxicity was observed”; in the data set on KYSE-520, “no cytotoxicity was observed”. The Cell migration result with KYSE-150 cells [1] is on record as “significantly inhibited the cell migration”. In addition, in the data set with KYSE-150 cells [2], the Body weight entry is listed as “significantly reduced”. The “H&E staining of tumor tissue” value in the data set on KYSE-150 cells [2] is recorded as “massive necrotizing tissue”. In addition, in the data set with KYSE-150 cells [2], the “Tumor growth (tumor volume)” value is reported as “significantly reduced”. The Tumor weight result with KYSE-150 cells [2] was “significantly reduced tumor weight”.
